Test results as given in patent US12357650B2, “Methods and compositions for cancer therapies that include delivery of halogenated thymidines and thymidine phosphorlylase inhibitors in combination with radiation” (Shuttle Pharmaceuticals, Inc., priority 2017, dated 2025).
“And” between values parts separate entries of the source, which are not always exact repeats. Equal entries are not always repeated. Where two headings read alike, the source gives them in different places.

Key:
[1] = Pharmacokinetic profile of IUdR (100 mg/kg) with and without Tipiracil in rats following single oral administration; assay type: in vivo, male Sprague-Dawley rats
Description: The purpose of this study was to determine the pharmacokinetics parameters of IUdR in male Sprague-Dawley rats following single oral (PO) administration the IUdR (i.e., Compound A) and Tipiracil (i.e., Compound B).
A control formulation was prepared where Compound A was dissolved in 5% DMSO+95% PBS to yield a final concentration of 10 mg/mL for oral administration. The prepared formulation was white suspension (pH˜7).
A second formulation was prepared where Compound A and Compound B were dissolved in 5% DMSO+95% PBS to yield a final concentration of 10 mg/mL (Compound A) and 0.79 mg/mL (Compound B) for oral administration. The prepared formulation was white suspension (pH˜7).
Animal Acquisition and Assignment to Study. A total of 8 male experimental Sprague-Dawley Rats were transferred from stock colony, and 6 animals were placed on study.
Dose Administration. The test article was administered via a single oral administration.
Sample Collection and Bioanalysis. Blood samples (approximately 200 μL/sample) were collected via jugular vein at Pre-dose and Post-dose (5 min, 15 min, 30 min, 1 h, 2 h, 4 h, 6 h, 8 h and 24 h). Blood samples were placed into tubes containing K2EDTA and centrifuged conditions at 8000 rpm for 6 minutes at 2-8° C. to separate plasma from the samples. Following centrifugation, the resulting plasma were transferred to clean tubes and stored frozen at −80° C. pending bioanalysis.
Pharmacokinetic Analysis. The PK analysis and interpretation of the results were conducted by Medicilon Preclinical Research (Shanghai) LLC. A non-compartmental module of WinNonlin® Professional was used to calculate parameters. Any BLQs (LLOQ=10.0 ng/mL for Compound A) were omitted when calculate the PK parameters.
Clinical Observations. No abnormal observations were noted.

cells = conditions: as compared to cells without the defective DNA; cited from earlier work
[2] = male, Sprague-Dawley, rat, plasma, oral, 100 mg/kg, PO-100 mg/kg Compound A alone or + 7.9 mg/kg Compound B, group mean, read-out: Plasma Concentration of Compound A, Mean
[3] = male, Sprague-Dawley, rat, plasma, oral, 100 mg/kg, PO-100 mg/kg Compound A alone or + 7.9 mg/kg Compound B, individual animals, LLOQ 10 ng/mL, read-out: Plasma Concentration of Compound A
[4] = single oral dose, Example 1, sub-heading prints PO-20 (Compound A) alone or + 7.9 (Compound B) mg/kg, individual animals

O=c1[nH]c(=O)n([C@H]2C[C@H](O)[C@@H](CO)O2)cc1I [Compound A, 5-iodo-2′-deoxyuridine]
Plasma Concentration of Compound A ([1]; PO-100 mg/kg Compound A alone or + 7.9 mg/kg Compound B, 2 hr, individual animals, LLOQ 10 ng/mL): 645.17 ng/mL and 943.79 ng/mL | Plasma Concentration of Compound A ([1]; PO-100 mg/kg Compound A alone or + 7.9 mg/kg Compound B, 4 hr, individual animals, LLOQ 10 ng/mL): 316.82 ng/mL and 441.37 ng/mL | Plasma Concentration of Compound A ([1]; PO-100 mg/kg Compound A alone or + 7.9 mg/kg Compound B, 6 hr, individual animals, LLOQ 10 ng/mL): BLQ and 56.61 ng/mL | Plasma Concentration of Compound A ([1]; PO-100 mg/kg Compound A alone or + 7.9 mg/kg Compound B, 8 hr, individual animals, LLOQ 10 ng/mL): BLQ | Plasma Concentration of Compound A ([1]; PO-100 mg/kg Compound A alone or + 7.9 mg/kg Compound B, 24 hr, individual animals, LLOQ 10 ng/mL): BLQ | AUC(0-inf) ([1]; male, Sprague-Dawley, rat, plasma, 100 mg/kg, single oral dose, Example 1, sub-heading prints PO-20 (Compound A) alone or + 7.9 (Compound B) mg/kg, individual animals): 2630 ng·h/mL | half-life ([1]; male, Sprague-Dawley, rat, plasma, 100 mg/kg, single oral dose, Example 1, sub-heading prints PO-20 (Compound A) alone or + 7.9 (Compound B) mg/kg, individual animals, read-out: t1/2 of Compound A (converted)): 0.89 h | concentration at 0.083 hr [1, 2]: 184 ng/mL | concentration at 0.083 hr [1, 3]: 191 ng/mL | concentration at 0.25 hr [1, 2]: 552 ng/mL | concentration at 0.25 hr [1, 3]: 489 ng/mL | concentration at 0.5 hr [1, 2]: 689 ng/mL | concentration at 0.5 hr [1, 3]: 627 ng/mL | concentration at 1 hr [1, 2]: 642 ng/mL | concentration at 1 hr [1, 3]: 556 ng/mL | concentration at 2 hr ([1]; male, Sprague-Dawley, rat, plasma, oral, 100 mg/kg, PO-100 mg/kg Compound A alone or + 7.9 mg/kg Compound B, 2 hr, group mean, read-out: Plasma Concentration of Compound A, Mean): 788 ng/mL | concentration at 2 hr ([1]; male, Sprague-Dawley, rat, plasma, oral, 100 mg/kg, PO-100 mg/kg Compound A alone or + 7.9 mg/kg Compound B, 2 hr, individual animals, LLOQ 10 ng/mL, read-out: Plasma Concentration of Compound A): 774 ng/mL | concentration at 4 hr ([1]; male, Sprague-Dawley, rat, plasma, oral, 100 mg/kg, PO-100 mg/kg Compound A alone or + 7.9 mg/kg Compound B, 4 hr, group mean, read-out: Plasma Concentration of Compound A, Mean): 345 ng/mL | concentration at 4 hr ([1]; male, Sprague-Dawley, rat, plasma, oral, 100 mg/kg, PO-100 mg/kg Compound A alone or + 7.9 mg/kg Compound B, 4 hr, individual animals, LLOQ 10 ng/mL, read-out: Plasma Concentration of Compound A): 276 ng/mL | concentration at 6 hr ([1]; male, Sprague-Dawley, rat, plasma, oral, 100 mg/kg, PO-100 mg/kg Compound A alone or + 7.9 mg/kg Compound B, 6 hr, group mean (BLQ omitted), read-out: Plasma Concentration of Compound A, Mean): 55.3 ng/mL | concentration at 6 hr ([1]; male, Sprague-Dawley, rat, plasma, oral, 100 mg/kg, PO-100 mg/kg Compound A alone or + 7.9 mg/kg Compound B, 6 hr, individual animals, LLOQ 10 ng/mL, read-out: Plasma Concentration of Compound A): 54 ng/mL | concentration at 8 hr ([1]; male, Sprague-Dawley, rat, plasma, oral, 100 mg/kg, PO-100 mg/kg Compound A alone or + 7.9 mg/kg Compound B, 8 hr, individual animals, LLOQ 10 ng/mL): 14.1 ng/mL | AUC(0-t) ([1]; male, Sprague-Dawley, rat, plasma, po, 100 mg/kg, oral administration, Example 1 (100 mg/kg IUdR, ± 7.9 mg/kg Tipiracil), comparison table, mean, read-out: AUC(0-t) of Compound A): 2720 ng·h/mL | Cmax ([1]; male, Sprague-Dawley, rat, plasma, po, 100 mg/kg, oral administration, Example 1 (100 mg/kg IUdR, ± 7.9 mg/kg Tipiracil), comparison table, mean, read-out: Cmax of Compound A): 824 ng/mL | Tmax ([1]; male, Sprague-Dawley, rat, plasma, po, 100 mg/kg, single oral dose, Example 1, sub-heading prints PO-20 (Compound A) alone or + 7.9 (Compound B) mg/kg, group mean): 1.5 h | Cmax ([1]; male, Sprague-Dawley, rat, plasma, po, 100 mg/kg, single oral dose, Example 1, sub-heading prints PO-20 (Compound A) alone or + 7.9 (Compound B) mg/kg, group mean, read-out: Cmax of Compound A, Mean): 824 ng/mL | AUC(0-t) ([1]; male, Sprague-Dawley, rat, plasma, po, 100 mg/kg, single oral dose, Example 1, sub-heading prints PO-20 (Compound A) alone or + 7.9 (Compound B) mg/kg, individual animals): 3320 ng·h/mL | Cmax ([1]; male, Sprague-Dawley, rat, plasma, po, 100 mg/kg, single oral dose, Example 1, sub-heading prints PO-20 (Compound A) alone or + 7.9 (Compound B) mg/kg, individual animals, read-out: Cmax of Compound A): 944 ng/mL | AUC(0-t) of Compound A [1, 4]: 2214.79 ng·h/mL and 2609.22 ng·h/mL | Cmax of Compound A [1, 4]: 773.62 ng/mL and 755.39 ng/mL | Tmax of Compound A [1, 4]: 2.00 h | increase in susceptibility of cells to the lethal effects of RT (cells): two-three fold
